Experimental findings from patent US20020039780A1, “Salicyclic acid inducible genes and promoters” (priority 1998, published 2002) are described below.

Format in all cases: cell-based
The subject of one assay is C14-1b. Briefly: Northern analysis of mRNA accumulation in cultured tobacco cells. As to conditions: 0.1 and 1 mM, approximately 2.5 h. As to the method: (§1) FIG. 2. Time course of SA-induced gene expression. Northern analysis of representative differential display genes following treatment of cultured tobacco cells with SA for the indicated time (in hours, except lanes 2-4, which refer to 10, 20, and 30 min.). Twenty micrograms of total RNA was loaded per lane. Blots were hybridized with ddPCR fragments indicated at right or with the β-ATPase gene as a loading control probe. Autoradiogram exposure times were optimized for each gene. The signal for C18-1 was enhanced by using the full length cDNA as probe. Labels on left indicate response class.
(§2) FIG. 4. Specificity of induction among SA analogs and other signalling compounds. Northern analysis of representative differential display genes following treatment of tobacco cells with 100 μM or 1 mM (left and right side of triangles, respectively) of the following chemicals for 2-2.5 hr: salicylic acid (SA, lanes 4 and 5), acetylSA (ASA, lanes 6 and 7), benzoic acid (BA, lanes 8 and 9), 4-hydroxybenzoic (4HBA, lanes 10 and 11), thiamine (thia, lanes 12 and 13), methyljasmonate (MJ, lanes 14 and 15), abscisic acid (ABA, lanes 16 and 17), or 2,4-dichlorophenoxyacetic acid (2,4-D, lanes 18 and 19). Control treatments are H2O (H, lane 1), 1% ethanol (E, solvent concentration in MJ treatments, lane 2), or 1% DMSO (D, solvent concentration in 2,4D treatments, lane 3). Blots were hybridized with ddPCR fragments indicated at right or with the β-ATPase geneas a loading control probe. Autoradiogram exposure times were optimized for each gene. The signal for C18-1 was enhanced by using the full length cDNA as probe. Labels on left indicate response class.
(§3) Differential display technology (Liang, P. and Pardee, A. B., Science 257: 967-971, 1992) was used to identify genes activated in the presence of SA, CHX and both. Therefore the absence or presence of SA, induction at 3 timepoints of SA-treatment, 2 different concentrations of SA and the effect of addition of CHX were measured. Seven treatments in total were performed. Treatment of tobacco BY-2 suspension cells and leaves and differential display PCR reactions were performed as described (Horvath and Chua (1996), Plant Mol. Biol. 31, 1061-1072).
(§4) The specificity for induction by SA was tested by treating tobacco cells with a range of SA analogs and plant signalling compounds at 0.1 and 1 mM for approximately 2.5 h. […] Among the SA-analogs, acetyl-SA (ASA, aspirin), benzoic acid (BA) and 4-hydroxybenzoic acid (4HBA), responses generally reflected the ability of the analog to substitute for SA in other cellular responses (Yalpani, N. et al., Plant Cell 3: 809-818, 1991, Yang, Y. and Klessig, D. F., Proc. Natl. Acad. Sci. 93, 14972-14977, 1996). […] Several genes, including those for proteinase inhibitors and lipoxygenase (Hildmann, T. et al., Plant Cell 4: 1157-1170, 1992; Melan, M. A. et al., Plant Physiol. 101: 441-450, 1993; Xu, D. et al., Plant Mol. Biol. 22: 573-588, 1993) are known to be under dual regulation by MJ and ABA. A similar mode of regulation may be in effect with C14-1b. the auxin 2,4-D induced several genes including C18-1/EREBP1 and C6-2.

Assay [1] concerns early SA-induced genes identified by differential display. Briefly: Northern analysis of differential display genes in cultured tobacco cells. The conditions noted are these: 0.1 and 1 mM, approximately 2.5 h. As to the method:
(§5) FIG. 1. […] Northern analysis of genes identified by differential display. Gel-purified DNA fragments produced by ddPCR were either used directly for random-primed labeling and probing of Northern filters (e.g. C7-1, C6-1, and G9-2) or first subcloned and released by restriction digest. Each lane contains 1 μg of poly(A) mRNA from cultured tobacco cells treated with (1) H2O, 4 hr; (2) 200 μM SA, 4 hr; (3) 71 μM CHX, 5 hr; (4) 71 μM CHX, 5 hr plus 200 μM SA after 1 hr (4 hr total); (5) 20 μM SA, 2 hr; (7) 200 μM SA, 8 hr.
as §2, with “The signal for C18-1 was enhanced by using the full length cDNA as probe.” left out
as §3
(§6) The specificity for induction by SA was tested by treating tobacco cells with a range of SA analogs and plant signalling compounds at 0.1 and 1 mM for approximately 2.5 h. […] Several genes, including those for proteinase inhibitors and lipoxygenase (Hildmann, T. et al., Plant Cell 4: 1157-1170, 1992; Melan, M. A. et al., Plant Physiol. 101: 441-450, 1993; Xu, D. et al., Plant Mol. Biol. 22: 573-588, 1993) are known to be under dual regulation by MJ and ABA.

Another assay relates to C18-1/EREBP1. Put plainly: Northern analysis of mRNA accumulation in cultured tobacco cells. The conditions noted are these: 0.1 and 1 mM, approximately 2.5 h. As to the method:
(§7) FIG. 2. Time course of SA-induced gene expression. Northern analysis of representative differential display genes following treatment of cultured tobacco cells with SA for the indicated time (in hours, except lanes 2-4, which refer to 10, 20, and 30 min.). Twenty micrograms of total RNA was loaded per lane. Blots were hybridized with ddPCR fragments indicated at right or with the β-ATPase gene as a loading control probe. Autoradiogram exposure times were optimized for each gene. […] Labels on left indicate response class.
as §2, with “The signal for C18-1 was enhanced by using the full length cDNA as probe.” left out
(§8) FIG. 5. Dose response of C18-1 and G8-1 to a range of chemicals. Northern analysis of tobacco cell cultures with eight concentrations of SA, ASA, BA, 4HBA, Thia, MJ, ABA, 2,4-D, or H2O for 2-2.5 hr. Concentrations were 0.1, 1, 3, 10, 30, 100, 300 μM or […], as indicated.
(§9) FIG. 6. […] Graphic representation of mRNA accumulation of G8-1 ( ), C18se -1 (♦), and IEGT (o) in response to a 2-2.5 hr incubation of cultured tobacco cells with a range of SA concentrations. RNA gel blots were quantitated by phosphorimaging analysis and normalized relative to the β-ATPase gene loading control (not shown).
as §3
The kinetics of induction were examined in detail through time course experiments for representative clones of each class (FIG. 2).
as §6
A dose-response curve was made for SA. Therefore tobacco cells were treated with SA in a range of concentrations from 0.1 μM to 2 mM.

For a further assay, the system named is G3-2. Described as above. As to conditions: 0.1 and 1 mM, approximately 2.5 h. As to the method:
(§10) FIG. 1. Four classes of SA-induced early genes. Northern analysis of genes identified by differential display. Gel-purified DNA fragments produced by ddPCR were either used directly for random-primed labeling and probing of Northern filters (e.g. C7-1, C6-1, and G9-2) or first subcloned and released by restriction digest. Each lane contains 1 μg of poly(A) mRNA from cultured tobacco cells treated with (1) H2O, 4 hr; (2) 200 μM SA, 4 hr; (3) 71 μM CHX, 5 hr; (4) 71 μM CHX, 5 hr plus 200 μM SA after 1 hr (4 hr total); (5) 20 μM SA, 2 hr; (7) 200 μM SA, 8 hr. One blot was sequentially hybridized with the G1-1 fragment and the β-ATPase gene as a loading control probe. response classes (I-IV) are indicated on the left of the autoradiograms.
as §1, §2, §3, §4

A further assay concerns G8-1. The assay is described as above. The conditions noted are these: for G8-1 induction at 0.1 mM versus 1 mM: 0.1 and 1 mM, approximately 2.5 h. As to the method:
as §5, §7
as §2, with “The signal for C18-1 was enhanced by using the full length cDNA as probe.” left out
as §8, §9, §3
The specificity for induction by SA was tested by treating tobacco cells with a range of SA analogs and plant signalling compounds at 0.1 and 1 mM for approximately 2.5 h.

Another assay has as its system C6-2. The description is as above. As to conditions: 0.1 and 1 mM, approximately 2.5 h. As to the method:
as §1, §2, §3, §4

For the next assay, the system named is Class I genes. Briefly: Northern analysis of poly(A) mRNA from treated tobacco cells. As to conditions: SA at 2, 4 or 8 h; 71 μM CHX 5 hrs; CHX + 200 μM SA. As to the method:
as §10, §3
(§11) Fiftytwo were recovered for testing on poly(A)+Northern blots loaded with mRNA derived from cells from each of the treatments.

In the next assay the test system is class II genes. The assay is described as above. As to conditions: SA at 2, 4, 8 h; 71 μM CHX 5 hrs; CHX + 200 μM SA. As to the method:
as §10, §3, §11

For assay [2], the system named is class IV genes (G3-2 and C14-1b). Described as above. As to the method:
as §10, §3, §11

Where [3] appears, read: 71 μM CHX 5 hrs + 200 μM SA after 1 hr.
[4] abbreviates: SA at 2, 4, 8 h, 71 μM CHX 5 hrs.

With `CC1=CC(=O)CC(C)(C)[C@@]1(O)/C=C/C(C)=C\C(=O)O` [ABA, abscisic acid], the “induction of C14-1b” value in the assay on C14-1b is on record as “could be induced”.

Take `Cc1ncc(C[n+]2csc(CCO)c2C)c(N)n1` [thiamine]: the “induction of the genes tested” value in assay [1] is “did not produce a response from any of the genes tested”.

For `CC/C=C\CC1C(=O)CCC1CC(=O)OC` (centres unmarked) [MJ, Methyljasmonate], in the assay on C18-1/EREBP1, the “effectiveness as inducer of C18-1/EREBP1 among compounds tested” value is recorded as “most effective inducer” and the “induction of C18-1/EREBP1” value is reported as “able to induce expression”. Besides, the “induction of G3-2” value in the assay on G3-2 is given as “able to induce expression”. In the assay on C14-1b, the “effectiveness as inducer of C14-1b among compounds tested” value is “most effective inducer” and the “induction of C14-1b” value is “able to induce expression”.

For the compound `CC(=O)Oc1ccccc1C(=O)O` [ASA, acetyl-SA], the “induction of the genes tested” value in assay [1] is on record as “induced all genes to similar levels as SA”. The “C18-1/EREBP1 induction at 0.1 mM versus 1 mM” value with C18-1/EREBP1 is reported as “greater induction at 1mM”. Moreover, in the assay with G3-2, the “G3-2 induction at 0.1 mM versus 1 mM” value is on record as “equal or greater induction at 0.1 mM versus 1 mM”. In addition, the “G8-1 induction at 0.1 mM versus 1 mM” value in the assay with G8-1 was “equal or greater induction at 0.1 mM versus 1 mM”. Also, in the assay on C6-2, the “C6-2 induction at 0.1 mM versus 1 mM” value is recorded as “greater induction at 1mM”.

As to `O=C(O)COc1ccc(Cl)cc1Cl` [2,4-D, 2,4-dichlorophenoxyacetic acid], in the assay with C18-1/EREBP1, the “induction of C18-1/EREBP1” value is on record as “induced”. The “induction of C6-2” value with C6-2 is given as “induced”.

For the compound `O=C(O)c1ccc(O)cc1` [4HBA, 4-hydroxybenzoic acid], the “induction of the genes tested” value in assay [1] was “failed to induce all genes but C6-2”.

In the case of `O=C(O)c1ccccc1` [BA, benzoic acid], in assay [1], the “induction of the genes tested” value is on record as “also induced the expression”. Further, the “C18-1/EREBP1 induction at 0.1 mM versus 1 mM” value in the assay on C18-1/EREBP1 is “greater induction at 1mM”. Besides, the “G3-2 induction at 0.1 mM versus 1 mM” value in the assay on G3-2 is recorded as “equal or greater induction at 0.1 mM versus 1 mM”. In addition, in the assay on G8-1, the “G8-1 induction at 0.1 mM versus 1 mM” value is given as “equal or greater induction at 0.1 mM versus 1 mM”. Moreover, the “C6-2 induction at 0.1 mM versus 1 mM” value with C6-2 is on record as “greater induction at 1mM”.

For `C[C@@H]1C[C@@H]([C@H](O)CC2CC(=O)NC(=O)C2)C(=O)[C@@H](C)C1` [CHX, cycloheximide], the “mRNA induction of Class I genes” value with Class I genes was “some induction”. Further, the “mRNA induction of class II genes” value in the assay on class II genes is listed as “also induced expression”. In assay [2] (setting [3]), the “effect of CHX on induction of class IV genes by SA” value is listed as “blocked the induction”. For the same compound, the “mRNA induction of class IV genes” value in [2] (setting [4]) was “fail to induce”. Also, in the assay on G8-1 (setting [3]), the “effect of presence of CHX on induction of G8-1 by SA” value was “did not significantly alter”. For the same compound, in the assay with G8-1 (setting [4]), the “mRNA induction of G8-1 (class III)” value was “did not induce”.
